Assays:
[1] = Compound cytotoxicity, XTT-based colorimetric assay in uninfected MT2 cells; format: cell-based; conditions: human, day 4, XTT assay
Protocol: Compound cytotoxicity and the corresponding CC50 values were determined using the same protocol as described in the antiviral assay except that uninfected cells were used. Cytotoxicity was assessed on day 4 in uninfected MT2 cells by using an XTT (2,3-bis[2-Methoxy-4-nitro-5-sulfophenyl]-2H-tetrazolium-5-carboxyanilide inner salt)-based colorimetric assay (Sigma-Aldrich, St Louis, Mo.).

[2] = tested on: recombinant NL4-3 virus (Renilla luciferase) in MT-2 cells; assay: HIV cell culture assay (antiviral, luciferase readout in infected MT-2 cells); format: cell-based; conditions: NL43
Protocol: HIV cell culture assay—MT-2 cells, 293T cells and the proviral DNA clone of NL4-3 virus were obtained from the NIH AIDS Research and Reference Reagent Program. MT-2 cells were propagated in RPMI 1640 media supplemented with 10% heat inactivated fetal bovine serum (FBS), […]. The 293T cells were propagated in DMEM media supplemented with 10% heat inactivated FBS, […]. A recombinant NL4-3 proviral clone, in which a section of the nef gene was replaced with the Renilla luciferase gene, was used to make the reference virus used in these studies. The recombinant virus was prepared through transfection of the recombinant NL4-3 proviral clone into 293T cells using Transit-293 Transfection Reagent from Mirus Bio LLC (Madison, Wis.). Supernatent was harvested after 2-3 days and the amount of virus present was titered in MT-2 cells using luciferase enzyme activity as a marker by measuring luciferase enzyme activity. Luciferase was quantitated using the EnduRen Live Cell Substrate from Promega (Madison, Wis.). Antiviral activities of compounds toward the recombinant virus were quantified by measuring luciferase activity in MT-2 cells infected for 4-5 days with the recombinant virus in the presence of serial dilutions of the compound.
The 50% effective concentration (EC50) was calculated by using the exponential form of the median effect equation where (Fa)=1/[1+(ED50/drug conc.)m] (Johnson V A, Byington R T. Infectivity Assay. In Techniques in HIV Research. ed. Aldovini A, Walker B D. 71-76. New York: Stockton Press. 1990). The 50% inhibitory concentration (EC50) was calculated by using the exponential form of the median effect equation where percent inhibition=1/[1+(EC50/drug concentration)m], where m is a parameter that reflects the slope of the concentration-response curve.

Compound	CC50 at 4 day [1] [nM]	EC50 [2] [nM]
Cn1nc(NS(C)(=O)=O)c2c(Cl)ccc(-n3c([C@H](Cc4cc(F)cc(F)c4)NC(=O)Cn4nc(C5CC5)c5c4C(F)(F)[C@@H]4C[C@H]54)nc4nc(OCCC(F)(F)F)ccc4c3=O)c21 (atropisomer, axis not shown; (P)) [Example 3, N—((S)-1-((3P)-3-(4-chloro-1-methyl-3-(methylsulfonamido)-1H-indazol-7-yl)-4-oxo-7-(3,3,3-trifluoropropoxy)-3,4-dihydropyrido[2,3-d]pyrimidin-2-yl)-2-(3,5-difluorophenyl)ethyl)-2-((3bS,4aR)-3-cyclopropyl-5,5-difluoro-3b,4,4a,5-tetrahydro-1H-cyclopropa[3,4]cyclopenta[1,2-c]pyrazol-1-yl)acetamide]	> 100	0.014
Cn1nc(NS(C)(=O)=O)c2c(Cl)ccc(-n3c([C@H](Cc4cc(F)cc(F)c4)NC(=O)Cn4nc(C5CC5)c5c4C(F)(F)[C@H]4C[C@@H]54)nc4nc(OCCC(F)(F)F)ccc4c3=O)c21 (atropisomer, axis not shown; (P)) [Example 4, N—((S)-1-((3P)-3-(4-chloro-1-methyl-3-(methylsulfonamido)-1H-indazol-7-yl)-4-oxo-7-(3,3,3-trifluoropropoxy)-3,4-dihydropyrido[2,3-d]pyrimidin-2-yl)-2-(3,5-difluorophenyl)ethyl)-2-((3bR,4aS)-3-cyclopropyl-5,5-difluoro-3b,4,4a,5-tetrahydro-1H-cyclopropa[3,4]cyclopenta[1,2-c]pyrazol-1-yl)acetamide]	> 100	0.079
Cn1nc(NS(C)(=O)=O)c2c(Cl)ccc(-n3c([C@H](Cc4cc(F)cc(F)c4)NC(=O)Cn4nc(C5CC5)c5c4C(F)(F)[C@H]4C[C@@H]54)nc4nc(OCCC(C)(F)F)ccc4c3=O)c21 (atropisomer, axis not shown; (P)) [Example 2, N—((S)-1-((3P)-3-(4-chloro-1-methyl-3-(methylsulfonamido)-1H-indazol-7-yl)-7-(3,3-difluorobutoxy)-4-oxo-3,4-dihydropyrido[2,3-d]pyrimidin-2-yl)-2-(3,5-difluorophenyl)ethyl)-2-((3bR,4aS)-3-cyclopropyl-5,5-difluoro-3b,4,4a,5-tetrahydro-1H-cyclopropa[3,4]cyclopenta[1,2-c]pyrazol-1-yl)acetamide]	> 100	0.05
Cn1nc(NS(C)(=O)=O)c2c(Cl)ccc(-n3c([C@H](Cc4cc(F)cc(F)c4)NC(=O)Cn4nc(C5CC5)c5c4C(F)(F)[C@@H]4C[C@H]54)nc4nc(OCCC(C)(F)F)ccc4c3=O)c21 (atropisomer, axis not shown; (P)) [Example 1, N—((S)-1-((3P)-3-(4-chloro-1-methyl-3-(methylsulfonamido)-1H-indazol-7-yl)-7-(3,3-difluorobutoxy)-4-oxo-3,4-dihydropyrido[2,3-d]pyrimidin-2-yl)-2-(3,5-difluorophenyl)ethyl)-2-((3bS,4aR)-3-cyclopropyl-5,5-difluoro-3b,4,4a,5-tetrahydro-1H-cyclopropa[3,4]cyclopenta[1,2-c]pyrazol-1-yl)acetamide]	> 100	0.027

Source: US20230106880A1, “INHIBITORS OF HUMAN IMMUNODEFICIENCY VIRUS REPLICATION” (VIIV HEALTHCARE UK (NO.5) LIMITED, priority 2020, published 2023)
